One series addresses T1, human EGF-R (Homo sapiens, UniProt P00533).
T1 construct: expressed in transfected cells; host or cells: F/L-HERc (murine IL-3-dependent FDC-P1 cells transduced with retroviral vector LXSN carrying the human EGF-R cDNA; packaging line GP+E86)
The series can be described thus: Inhibition of EGF-dependent proliferation of F/L-HERc cells. The class given is cell-based. The note with it: F/L-HERc cells (murine IL-3-dependent line expressing human EGF-R), stimulated with EGF 20 ng/ml, 48 hours, Cell Titer 96 AQueous assay. The source says: A cell line of murine origin dependent on interleukin-3-(IL-3) which was genetically modified to express functional human EGF-R was used here. The proliferation of these cells known as F/L-HERc can therefore be stimulated either by murine IL-3 or by EGF (cf. von Rüden, T. et al. in EMBO J. 7, 2749-2756 (1988) and Pierce, J. H. et al. in Science 239, 628-631 (1988)).
The starting material used for the F/L-HERc cells was the cell line FDC-P1, the production of which has been described by Dexter, T. M. et al. in J. Exp. Med. 152, 1036-1047 (1980). Alternatively, however, other growth-factor-dependent cells may also be used (cf. for example Pierce, J. H. et al. in Science 239, 628-631 (1988), Shibuya, H. et al. in Cell 70, 57-67 (1992) and Alexander, W. S. et al. in EMBO J. 10, 3683-3691 (1991)). For expressing the human EGF-R cDNA (cf. Ullrich, A. et al. in Nature 309, 418-425 (1984)) recombinant retroviruses were used as described by von Rüden, T. et al., EMBO J. 7, 2749-2756 (1988), except that the retroviral vector LXSN (cf. Miller, A. D. et al. in BioTechniques 7, 980-990 (1989)) was used for the expression of the EGF-R cDNA and the line GP+E86 (cf. Markowitz, D. et al. in J. Virol. 62, 1120-1124 (1988)) was used as the packaging cell.
The test was performed as follows:
F/L-HERc cells were cultivated in RPMI/1640 medium (BioWhittaker), supplemented with 10% foetal calf serum (FCS, Boehringer Mannheim), 2 mM glutamine (BioWhittaker), standard antibiotics and 20 ng/ml of human EGF (Promega), at 37° C. and 5% CO2. In order to investigate the inhibitory activity of the compounds according to the invention, 1.5×10^4 cells per well were cultivated in triplicate in 96-well dishes in the above medium (200 μl), the cell proliferation being stimulated with either EGF (20 ng/ml) or murine IL-3. The IL-3 used was obtained from culture supernatants of the cell line X63/0 mIL-3 (cf. Karasuyama, H. et al. in Eur. J. Immunol. 18, 97-104 (1988)). The compounds according to the invention were dissolved in 100% dimethylsulphoxide (DMSO) and added to the cultures in various dilutions, the maximum DMSO concentration being 1%. The cultures were incubated for 48 hours at 37° C.
In order to determine the inhibitory activity of the compounds according to the invention the relative cell number was measured in O.D. units using the Cell Titer 96™ AQueous Non-Radioactive Cell Proliferation Assay (Promega). The relative cell number was calculated as a percentage of the control (F/LHERc cells without inhibitor) and the concentration of active substance which inhibits the proliferation of the cells by 50% (IC50) was derived therefrom.

The text below walks through data of patent US6656946B2, “Aminoquinazolines which inhibit signal transduction mediated by tyrosine kinases” (Boehringer Ingelheim Pharma KG, priority 2000, dated 2003).

SMILES strings stand for the structures.

T1 sequence (P00533 25-1210): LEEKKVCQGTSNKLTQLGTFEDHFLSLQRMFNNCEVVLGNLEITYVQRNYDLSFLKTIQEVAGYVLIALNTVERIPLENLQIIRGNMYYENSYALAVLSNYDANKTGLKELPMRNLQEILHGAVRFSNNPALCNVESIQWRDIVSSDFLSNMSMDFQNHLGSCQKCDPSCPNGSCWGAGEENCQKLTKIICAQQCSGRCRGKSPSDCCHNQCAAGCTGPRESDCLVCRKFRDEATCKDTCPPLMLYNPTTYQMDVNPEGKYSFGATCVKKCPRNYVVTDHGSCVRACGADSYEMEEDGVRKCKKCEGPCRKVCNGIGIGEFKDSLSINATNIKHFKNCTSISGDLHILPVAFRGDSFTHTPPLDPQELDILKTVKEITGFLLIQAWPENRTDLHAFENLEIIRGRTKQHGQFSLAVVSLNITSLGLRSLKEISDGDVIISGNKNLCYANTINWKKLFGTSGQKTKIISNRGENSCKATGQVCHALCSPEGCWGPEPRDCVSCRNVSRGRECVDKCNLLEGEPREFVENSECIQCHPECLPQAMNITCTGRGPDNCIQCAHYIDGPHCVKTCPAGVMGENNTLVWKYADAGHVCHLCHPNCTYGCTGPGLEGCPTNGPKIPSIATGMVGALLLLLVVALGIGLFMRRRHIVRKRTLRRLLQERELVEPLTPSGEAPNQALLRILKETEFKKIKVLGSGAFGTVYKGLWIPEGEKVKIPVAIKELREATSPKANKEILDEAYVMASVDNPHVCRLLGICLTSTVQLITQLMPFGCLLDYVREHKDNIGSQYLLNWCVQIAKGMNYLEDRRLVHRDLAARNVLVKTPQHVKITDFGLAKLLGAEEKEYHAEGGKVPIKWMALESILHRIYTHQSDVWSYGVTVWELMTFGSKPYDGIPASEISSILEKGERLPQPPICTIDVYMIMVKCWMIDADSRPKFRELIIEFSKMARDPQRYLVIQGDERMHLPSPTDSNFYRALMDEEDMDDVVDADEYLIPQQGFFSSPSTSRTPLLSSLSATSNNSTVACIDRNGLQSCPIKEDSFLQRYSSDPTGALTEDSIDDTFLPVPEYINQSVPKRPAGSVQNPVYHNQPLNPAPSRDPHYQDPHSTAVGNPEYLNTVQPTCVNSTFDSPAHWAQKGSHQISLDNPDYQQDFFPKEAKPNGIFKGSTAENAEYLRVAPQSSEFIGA

For the molecule `CC1(C)CN(CCOc2cc3c(Nc4ccc(F)c(Cl)c4)ncnc3cc2OC[C@H]2CCCO2)CC(=O)O1` [Example 3(29), 4-[(3-chloro-4-fluorophenyl)amino]-6-[2-(6,6-dimethyl-2-oxo-morpholin-4-yl)-ethoxy]-7-[(R)-(tetrahydrofuran-2-yl)methoxy]-quinazoline], the melting point turned out to be 184 °C.
Still for that read-out and setting: the result for `COc1cc2ncnc(Nc3ccc(F)c(Cl)c3)c2cc1OCCN1CC(=O)O[C@@H](C)C1` [3(25), 4-[(3-Chloro-4-fluorophenyl)amino]-6-[2-((S)-6-methyl-2-oxo-morpholin-4-yl)-ethoxy]-7-methoxy-quinazoline] reads 212 to 213 °C; that for `COc1cc2ncnc(Nc3cccc(Br)c3)c2cc1OCCN1CC(=O)O[C@H](C)C1` [Example 3(1), 4-[(3-Bromo-phenyl)amino]-6-[2-((R)-6-methyl-2-oxo-morpholin-4-yl)-ethoxy]-7-methoxy-quinazoline], 193 °C.
The same measure, in the same setting: the result for `C[C@@H]1CN(CCCOc2cc3c(Nc4ccc(F)c(Cl)c4)ncnc3cc2OC2CCC2)CC(=O)O1` [Example 3(6), 4-[(3-Chloro-4-fluorophenyl)amino]-6-[3-((R)-6-methyl-2-oxo-morpholin-4-yl)-propyloxy]-7-cyclobutyloxy-quinazoline] reads 185.5 to 189.5 °C; that for `C[C@@H]1CN(CCCOc2cc3c(Nc4ccc(F)c(Cl)c4)ncnc3cc2OCC2CC2)CC(=O)O1` [Example 3(8), 4-[(3-Chloro-4-fluorophenyl)amino]-6-[3-((R)-6-methyl-2-oxo-morpholin-4-yl)-propyloxy]-7-cyclopropylmethoxy-quinazoline], 160.5 to 163 °C.
On human EGF-R, `CC1(C)CN(CCOc2cc3ncnc(Nc4ccc(F)c(Cl)c4)c3cc2OCC2CC2)CC(=O)O1` [1(1), 4-[(3-Chloro-4-fluorophenyl)amino]-6-cyclopropylmethoxy-7-[2-(6,6-dimethyl-2-oxo-morpholin-4-yl)-ethoxy]-quinazoline] returned an IC50 of 29 nM.
For the molecule `CN(CCCOc1cc2c(Nc3ccc(F)c(Cl)c3)ncnc2cc1OC1CCC1)C1COC(=O)C1` (centres unmarked) [Example 2(2), 4-[(3-Chloro-4-fluorophenyl)amino]-6-{3-[N-(2-oxo-tetrahydrofuran-4-yl)-N-methyl-amino]-propyloxy}-7-cyclobutyloxy-quinazoline], the melting point lay in the range of 147.5 to 151 °C.
`COc1cc2ncnc(Nc3ccc(F)c(Cl)c3)c2cc1OCCN1CC(=O)OC(C)(C)C1` [Example 3(27), 4-[(3-Chloro-4-fluorophenyl)amino]-6-[2-(6,6-dimethyl-2-oxo-morpholin-4-yl)-ethoxy]-7-methoxy-quinazoline]: the melting point is 229 to 232 °C.
As for `CC1(C)CN(CCCOc2cc3c(Nc4ccc(F)c(Cl)c4)ncnc3cc2OC2CCC2)CC(=O)O1` [1(2), 4-[(3-Chloro-4-fluorophenyl)amino]-7-cyclobutyloxy-6-[3-(6,6-dimethyl-2-oxo-morpholin-4-yl)-propyloxy]-quinazoline], the melting point fell in the range of 212 to 214 °C. On human EGF-R, this molecule came in with an IC50 of 29 nM.
`CC1(C)COC(=O)CN1CCCOc1cc2c(Nc3ccc(F)c(Cl)c3)ncnc2cc1OC1CCC1` [Example 3(7), 4-[(3-Chloro-4-fluorophenyl)amino]-6-[3-(5,5-dimethyl-2-oxo-morpholin-4-yl)-propyloxy]-7-cyclobutyloxy-quinazoline] yielded a melting point of 214 to 216 °C.
The same measure, in the same setting: the result for `C[C@@H]1CN(CCOc2cc3c(Nc4ccc(F)c(Cl)c4)ncnc3cc2OC2CCCC2)CC(=O)O1` [Example 3(11), 4-[(3-Chloro-4-fluorophenyl)amino]-6-[2-((R)-6-methyl-2-oxo-morpholin-4-yl)-ethoxy]-7-cyclopentyloxy-quinazoline] reads 176 to 178 °C.
`CN(CCOc1cc2ncnc(Nc3ccc(F)c(Cl)c3)c2cc1OC1CCCC1)C1COC(=O)C1` (centres unmarked) [2(1), 4-[(3-Chloro-4-fluorophenyl)amino]-6-cyclopentyloxy-7-{2-[N-(2-oxo-tetrahydrofuran-4-yl)-N-methyl-amino]-ethoxy}-quinazoline] had an IC50 against human EGF-R of 36 nM.
On to `CC1(C)CN(CCOc2cc3ncnc(Nc4ccc(F)c(Cl)c4)c3cc2O[C@H]2CCOC2)CC(=O)O1` [Example 3(30), 4-[(3-chloro-4-fluorophenyl)amino]-7-[2-(6,6-dimethyl-2-oxo-morpholin-4-yl)-ethoxy]-6-((S)-tetrahydrofuran-3-yloxy)-quinazoline], for which the melting point was in the range of 202 to 205 °C.
On the same count and under the same terms, then `C[C@H]1CN(CCCOc2cc3c(Nc4ccc(F)c(Cl)c4)ncnc3cc2OCC2CC2)CC(=O)O1` [Example 3(9), 4-[(3-Chloro-4-fluorophenyl)amino]-6-[3-((S)-6-methyl-2-oxo-morpholin-4-yl)-propyloxy]-7-cyclopropylmethoxy-quinazoline], with 160 to 162 °C.
On to `COc1cc2ncnc(Nc3cccc(Br)c3)c2cc1OCCN(CC(=O)OC(C)(C)C)C[C@@H](C)O` [Example 4(1), 4-[(3-Bromo-phenyl)amino]-6-(2-{N-[(tert.butyloxycarbonyl)methyl]-N-((R)-2-hydroxy-propyl)-amino}-ethoxy)-7-methoxy-quinazoline], for which the melting point was found to be 130 °C.
On the same count and under the same terms, then `CC1(C)CN(CCOc2cc3ncnc(Nc4ccc(F)c(Cl)c4)c3cc2OC[C@@H]2CCCO2)CC(=O)O1` [Example 3(31), 4-[(3-chloro-4-fluorophenyl)amino]-7-[2-(6,6-dimethyl-2-oxo-morpholin-4-yl)-ethoxy]-6-[(S)-(tetrahydrofuran-2-yl)methoxy]-quinazoline], with 182 °C.
Same read-out and setting: then `COc1cc2ncnc(Nc3ccc(F)c(Cl)c3)c2cc1OCCN(CC(=O)O)C[C@H](C)O` [Example 3(26), 4-[(3-Chloro-4-fluorophenyl)amino]-6-{2-[N-(carboxymethyl)-N-((S)-2-hydroxy-propyl)-amino]-ethoxy}-7-methoxy-quinazoline], with 187 to 190 °C.
On human EGF-R, `CC1(C)CN(CCOc2cc3ncnc(Nc4ccc(F)c(Cl)c4)c3cc2OCC2CCCC2)CC(=O)O1` [Example 1, 4-[(3-Chloro-4-fluorophenyl)amino]-6-cyclopentylmethoxy-7-[2-(6,6-dimethyl-2-oxo-morpholin-4-yl)-ethoxy]-quinazoline] registered an IC50 of 59 nM.
With `COc1cc2ncnc(Nc3cccc(Br)c3)c2cc1OCCN1CC(=O)O[C@@H](C)C1` [Example 3, 4-[(3-Bromo-phenyl)amino]-6-[2-((S)-6-methyl-2-oxo-morpholin-4-yl)-ethoxy]-7-methoxy-quinazoline], the melting point is 190 °C.
Consider `COc1cc2ncnc(Nc3ccc(F)c(Cl)c3)c2cc1OCCN1CC(=O)O[C@H](C)C1` [Example 3(2), 4-[(3-Chloro-4-fluorophenyl)amino]-6-[2-((R)-6-methyl-2-oxo-morpholin-4-yl)-ethoxy]-7-methoxy-quinazoline], for which the melting point amounted to 208 °C.
For the molecule `COc1cc2ncnc(Nc3ccc(F)c(Cl)c3)c2cc1OCCCN1CC(=O)O[C@@H](C)C1` [Example 3(23), 4-[(3-Chloro-4-fluorophenyl)amino]-6-[3-((S)-6-methyl-2-oxo-morpholin-4-yl)-propyloxy]-7-methoxy-quinazoline], the melting point fell in the range of 183 to 186 °C.
Same read-out and setting: then `CC1(C)CN(CCOc2cc3c(Nc4ccc(F)c(Cl)c4)ncnc3cc2O[C@@H]2CCOC2)CC(=O)O1` [Example 3(28), 4-[(3-chloro-4-fluorophenyl)amino]-6-[2-(6,6-dimethyl-2-oxo-morpholin-4-yl)-ethoxy]-7-((R)-tetrahydrofuran-3-yloxy)-quinazoline], with 195 to 196 °C.
